Patent US5925645A, “2-aryl-substituted pyridines” (Bayer Aktiengesellschaft, priority 1996, dated 1999)

Legend:
[1] = Oral activity in hamsters: HDL cholesterol and triglycerides; type: in vivo, Syrian golden hamsters
Procedure: (§1) Syrian golden hamsters from in-house breeding are anaesthetized after fasting for 24 hours (0.80 mg/kg of atropine, 0.80 mg/kg of Ketavet® s.c. 30' later 50 mg/kg of Nembutal i.p.). The jugular vein is then exposed and cannulated. The test substance is dissolved in a suitable solvent (as a rule Adalat placebo solution: 60 g of glycerol, 100 ml of H2 O, PEG-400 to 1000 ml) and administered to the animals via a PE catheter inserted into the jugular vein. The control animals receive the same volume of solvent without test substance. The vein is then tied off and the wound is closed. After various times--up to 24 hours after administration of the test substance--blood (about 250 μl) is removed from the animals by puncture of the retro-orbital venous plexus. Clotting is concluded by incubation at 4° C. overnight, then centrifugation is carried out at 6000 g for 10 minutes. In the serum thus obtained, the content of cholesterol and triglycerides is determined with the aid of modified commercially available enzyme tests (cholesterol enzymatic 14366 Merck, triglycerides 14364 Merck). Serum is suitably diluted using physiological saline solution.
(§2) 100 μl of serum dilution are mixed with 100 μl of […] in 96-well plates and incubated at room temperature for 10 minutes. The optical density is then determined at a wavelength of 492 nm using an automatic plate-reading apparatus (SLT Spectra). The triglyceride/cholesterol concentration contained in the samples is determined with the aid of a standard curve measured in parallel.
The determination of the content of HDL cholesterol is carried out after precipitation of the ApoB-containing lipoproteins by means of a reagent mixture (Sigma 352-4 HDL cholesterol reagent) according to the manufacturer's instructions.
In experiments to determine the oral activity, test substance dissolved in DMSO and suspended in 0.5% Tylose is administered orally by means of stomach tube to Syrian golden hamsters from in-house breeding. The control animals receive identical volumes of solvent without test substance. […]

[2] = molecular target: T1, cholesterol ester transfer protein (CETP) (Homo sapiens, UniProt P11597); assay: CETP inhibition testing: transfer of 3H-cholesterol ester from human HD lipoproteins to biotinylated LD lipoproteins (SPA); type: biochemical; settings: 3H-CE transfer HDL to biotin-LDL, 37° C., 18 h
T1 construct: CETP is obtained in partially purified form from human plasma by differential centrifugation and column chromatography; from tissue; host or cells: human plasma
T1 sequence (P11597 18-493): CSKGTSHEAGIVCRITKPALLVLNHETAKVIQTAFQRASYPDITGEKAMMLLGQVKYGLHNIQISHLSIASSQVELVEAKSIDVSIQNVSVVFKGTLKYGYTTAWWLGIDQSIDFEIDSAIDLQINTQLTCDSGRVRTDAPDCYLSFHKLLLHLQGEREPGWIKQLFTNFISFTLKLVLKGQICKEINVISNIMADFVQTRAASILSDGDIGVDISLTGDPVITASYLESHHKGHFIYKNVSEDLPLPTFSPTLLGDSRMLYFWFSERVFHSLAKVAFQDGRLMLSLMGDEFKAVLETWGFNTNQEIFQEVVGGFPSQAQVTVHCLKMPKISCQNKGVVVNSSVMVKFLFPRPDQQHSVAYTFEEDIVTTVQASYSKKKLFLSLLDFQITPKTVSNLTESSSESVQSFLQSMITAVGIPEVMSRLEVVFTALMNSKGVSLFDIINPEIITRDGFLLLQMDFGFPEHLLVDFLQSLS
Procedure: CETP is obtained in partially purified form from human plasma by differential centrifugation and column chromatography and used for the test. To this end, human plasma is adjusted to a density of 1.21 g per ml using NaBr and centrifuged at 4° C. for 18 h at 50,000 rpm. The bottom fraction (d>1.21 g/ml) is applied to a Sephadex®phenyl-sepharose 4B (Pharmacia) column, washed with 0.15M NaCl/0.001M trisHCl pH 7.4 and then eluted with dist. water. The CETP-active fractions are pooled, dialysed against 50 mM Na acetate pH 4.5 and applied to a CM-Sepharose® (Pharmacia) column. The column is then eluted using a linear gradient (0-1M NaCl). The pooled CETP fractions are dialysed against 10 mM trisHCl pH 7.4 and then further purified by chromatography on a Mono Q® column (Pharmacia).
50 ml of fresh human EDTA plasma is adjusted to a density of 1.12 using NaBr and centrifuged for 18 h at 50,000 rpm at 4° C. in a Ty 65 rotor. The upper phase is used to obtain cold LDL. The lower phase is dialysed against 3×4 l of PDB buffer (10 mM tris/HCl pH 7.4, […], 1 mM EDTA, 0.02% NaN3). 20 μl of ^3 H-cholesterol (Dupont NET-725; 1 μC/μl dissolved in ethanol) are then added per 10 ml of retentate volume and incubation is carried out at 37° C. under N2 for 72 h.
The mixture is then adjusted to the density 1.21 using NaBr and centrifuged at 20° C. at 50,000 rpm in the Ty 65 rotor for 18 h. The upper phase is recovered and the lipoprotein fractions are purified by gradient centrifugation. To this end, the isolated, labelled lipoprotein fraction is adjusted to a density of 1.26 using NaBr. Each 4 ml of this solution are covered with a layer of 4 ml of a solution of density 1.21 and 4.5 ml of a solution of density 1.063 (density solutions of PDB buffer and NaBr) in centrifuge tubes (SW 40 rotor) and then centrifuged in the SW 40 rotor for 24 h at 38,000 rpm and 20° C. The intermediate layer containing the labelled HDL lying between the densities 1.063 and 1.21 is dialyzed against 3×100 volumes of PDB buffer at 4° C.
The retentate contains radiolabelled ^3 H-CE-HDL which, adjusted to about 5×10^6 cpm per ml, is used for the test.
For testing the CETP activity, the transfer of ^3 H-cholesterol ester from human HD lipoproteins to biotinylated LD lipoproteins is measured.
The reaction is ended by addition of streptavidin-SPA® beads (Amersham) and the transferred radioactivity is determined directly in a liquid scintillation counter.
In the test mixture, 10 μl of HDL-^3 H-cholesterol ester (~50,000 cpm) are incubated at 37° C. for 18 h with 10 μl of biotin-LDL (Amersham) in 50 mM Hepes/0.15 m NaCl/0.% bovine serum albumin/0.05% NaN3 pH 7.4 with 10 μl of CETP (1 mg/ml) and 3 μl of solution of the substance to be tested (dissolved in 10% DMSO/1% RSA). 200 μl of the SPA-streptavidin bead solution (Amersham TRKQ 7005) are then added, the mixture is incubated further for 1 h with shaking and then measured in the scintillation counter. As controls, corresponding incubations with 10 μl of buffer, 10 μl of CETP at 4° C. and 10 μl of CETP at 37° C. are used. The activity transferred into the control mixtures with CETP at 37° C. is rated as 100% transfer. The substance concentration at which this transfer is reduced by half is indicated as the IC50 value.
In the following table, the IC50 values (mol/l) are indicated for CETP inhibitors: […]

CETP = assay: Determination of the CETP activity ex vivo after intravenous administration; type: in vivo, Syrian golden hamsters; settings: 20 mg/kg intravenous
Procedure: as §1
Determination of the CETP activity
After intravenous administration of 20 mg/kg of the compound from Example 42, an about 50% reduction of the CETP activity measured ex vivo is found over a period of at least 2 hours. […]

[3] = HDL cholesterol after intravenous administration to hamsters; type: in vivo, Syrian golden hamsters; settings: 20 mg/kg intravenous; 24 hours after substance administration
Procedure: as §1, with “Clotting is concluded by incubation at 4° C. overnight, then centrifugation is carried out at 6000 g for 10 minutes.” left out, “Serum is suitably diluted using physiological saline solution.” left out
as §2, with “parallel. […]” for “parallel.”

[4] = 2×45 mg/kg per os, 24 hours after the first administration

Structure (SMILES) | IC50 [2] [nM] | also measured
OCc1c(-c2ccc(F)cc2)nc(C2CCCC2)c(C(F)c2ccc(C(F)(F)F)cc2)c1-c1ccc(F)cc1 (single isomer, unassigned) [Example 44] | – | increase of the level of HDL cholesterol versus control group [1, 4]: 20%; lowering of the level of the triglycerides versus control group [1, 4]: 70%
CC(C)c1nc(-c2ccc(F)cc2)c(C(C)O)c(-c2ccc(F)cc2)c1C(F)c1ccc(C(F)(F)F)cc1 (stereo not drawn) [Example 3, 4,6-Bis-(p-fluorophenyl)-2-isopropyl-3-[(p-trifluoromethylphenyl)-(fluoro)methyl]5-(1-hydroxyethyl)pyridine] | 800 | –
O=C(c1ccc(C(F)(F)F)cc1)c1c(C2CCCC2)nc(-c2cccc(C(F)(F)F)c2)c(CO)c1-c1ccc(F)cc1 [Example 14] | 70 | –
CC(O)c1c(-c2ccc(F)cc2)nc(C2CCCC2)c(C(=O)c2ccc(C(F)(F)F)cc2)c1-c1ccc(F)cc1 (stereo not drawn) [Example 26] | 900 | –
CC(C)c1nc(-c2ccc(F)cc2)c(CO)c(-c2cccc(Cl)c2)c1Cc1ccc(C(F)(F)F)cc1 [Example 63] | 1000 | –
OCc1c(-c2ccc(F)cc2)nc(C2CCCC2)c(C(F)c2ccc3ccccc3c2)c1-c1ccc(F)cc1 (stereo not drawn) [Example 68] | 80 | –
CC(C)c1nc(-c2ccc(F)cc2)c(CO)c(-c2ccc(F)cc2)c1C=Cc1cccc(C(F)(F)F)c1 [Example 83, 2,4-di-(4-Fluorophenyl)-6-isopropyl-5-[2-(3-trifluoromethylphenyl)vinyl]-3-hydroxymethyl-pyridine] | 5000 | –

Now from value to compound, other results behind:

IC50 [2] [nM] | Structure (SMILES) | also measured
500 | CC(C)c1nc(-c2ccc(F)cc2)c(CO)c(-c2ccc(F)cc2)c1C(F)c1ccc(C(F)(F)F)cc1 (stereo not drawn) [Example 31, 2-,4-di-(4-Fluorophenyl)-6-isopropyl-5-[4-(trifluoromethylphenyl)-fluoromethyl]-3-hydroxymethyl-pyridine] | –
300 | OCc1c(-c2ccc(Cl)cc2)nc(C2CCCC2)c(C(F)c2ccc(C(F)(F)F)cc2)c1-c1ccc(F)cc1 (stereo not drawn) [Example 37] | –
90 to 170 | OCc1c(-c2ccc(F)cc2)nc(C2CCCC2)c(C(F)c2ccc(C(F)(F)F)cc2)c1-c1ccc(F)cc1 (stereo not drawn) [Example 42] | increase of HDL cholesterol levels ([1]; 100 mg/kg per os, 24 hours after administration): 30%; period over which the about 50% reduction of CETP activity is found (CETP; ex vivo): at least 2 hours; reduction of the CETP activity measured ex vivo (CETP; over a period of at least 2 hours): about 50%; increase of HDL cholesterol values versus control group [3]: about 30%
300 | OCc1c(-c2ccc(F)cc2)nc(C2CCCC2)c(C(F)c2ccc(OC(F)(F)F)cc2)c1-c1ccc(F)cc1 (stereo not drawn) [Example 45] | –
400 | OCc1c(-c2ccc(F)cc2)nc(C2CCCCC2)c(C(F)c2ccc(C(F)(F)F)cc2)c1-c1ccc(F)cc1 (stereo not drawn) [Example 51] | –
170 | OCc1c(-c2ccc(F)cc2)nc(C2CCCCCC2)c(C(F)c2ccc(C(F)(F)F)cc2)c1-c1ccc(F)cc1 (stereo not drawn) [Example 53] | –
